Laboratory results taken from patent EP0429304A2, “Pyridone-carboxylic acid derivatives and their use as veterinary medicines” (SHIONOGI SEIYAKU KABUSHIKI KAISHA trading under the name of …, priority 1989, dated 1991).
Read-outs that look alike come from different tables or passages of the source.

Columns and labels:
[1] = tested on: Mycoplasma gallisepticum (MG) S6; assay: In vitro sensitivity test (liquid dilution method); format: cell-based; details: 37°C, 7 days
[2] = tested on: Mycoplasma gallisepticum (MG) T-7-T, TS-resistant strain isolated from the field; assay: In vitro sensitivity test (liquid dilution method); format: cell-based; details: 37°C, 7 days
[3] = tested on: Mycoplasma hyopneumoniae (Mh) ST-11; assay: In vitro sensitivity test (liquid dilution method); format: cell-based; details: 37°C, 7 days
[4] = tested on: Mycoplasma synoviae (MS) 1853; assay: In vitro sensitivity test (liquid dilution method); format: cell-based; details: 37°C, 7 days
Outline: (§1)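 Bacteria were of animal origin. MS strains were grown by liquid dilution in Frey medium with 12 % pig-serum and 0.01 % βNAD at 37°C for 7 days. S.au was tested by agar dilution on Mueller Hinton agar, 37°C for 20 to 24 hours. P.pis was grown on 1.5 % NaCl heart infusion agar at 25°C for 40 to 48 hours.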

[5] = tested on: Mycoplasma synoviae (MS) F10-2as; assay: In vitro sensitivity test (liquid dilution method); format: cell-based; details: 37°C, 7 days
Outline: as §1

[6] = tested on: Bordetella bronchiseptica (B.br) ABU-1; assay: In vitro sensitivity test (agar dilution method); format: cell-based; details: 37°C, 20 to 24 hours
[7] = tested on: Escherichia coli (E.coli) E-17, chicken-origin strain isolated from the field; assay: In vitro sensitivity test (agar dilution method); format: cell-based; details: 37°C, 20 to 24 hours
Outline: (§2)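 For the fish-origin P.pis strain this meant heart infusion agar supplemented with 1.5 % NaCl at 25°C for 40 to 48 hours. S.au plates used Mueller Hinton agar at 37°C for 20 to 24 hours. MS broths used Frey medium with 12 % pig-serum and 0.01 % βNAD at 37°C for 7 days.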

[8] = tested on: Escherichia coli (E.coli) JC-2; assay: In vitro sensitivity test (agar dilution method); format: cell-based; details: 37°C, 20 to 24 hours
[9] = tested on: Hemophilus paragallinarum (H.pg) 221; assay: In vitro sensitivity test (agar dilution method); format: cell-based; details: agar dilution, 37°C, 20 hours, 10 % CO₂
[10] = tested on: Hemophilus paragallinarum (H.pg) S-1; assay: In vitro sensitivity test (agar dilution method); format: cell-based; details: agar dilution, 37°C, 20 hours, 10 % CO₂
[11] = tested on: Hemophilus pleuropneumonia (H.pp) M-1; assay: In vitro sensitivity test (agar dilution method); format: cell-based; details: 37°C, 20 hours, 10 % CO₂
[12] = tested on: Staphylococcus aureus (S.au) 209P; assay: In vitro sensitivity test (agar dilution method); format: cell-based; details: 37°C, 20 to 24 hours
Outline: as §2

[13] = tested on: TS-resistant strain of MG; format: in vivo, chicken; details: for Number of infected fowl/Number of fowl tested: 3.5 x 10³ CFU/fowl
TS-resistant MG [14] = assay: Experimental MG infection to chicken, through bait; format: in vivo; details: 9-days chicken; for Number of fowl having air sack lesions: 1.8 x 10³ CFU/fowl; for Number of infected fowl/Number of fowl tested: 6.6 x 10³ CFU/fowl, dissection 6th day after inoculation
H.pg strain (i.e. 221) = assay: Experimental H.pg infection to chicken, through bait; format: in vivo; details: 28-days chicken infected with 4 x 10⁸ CFU/fowl, dissection, 10th day after inoculation
Description: (§3) In these experiments, the compound (I) was applied to the designated animals by (1) oral administration, (2) incorporation into baits and (3) intramuscular injection, the details of which are explained below.

TS-resistant MG [15] = assay: Experimental MG infection to chicken, through injection; format: in vivo; details: 5 fowl tested, 10-days chicken, 3.1 x 10³ CFU/fowl
[16] = tested on: H.pp (otherwise called Actinobacillus pleuropneumoniae) strain M-1; assay: Experimental H.pp infection to pig, through injection; format: in vivo; details: injection to thigh muscle one time, dissection 6 days after inoculation
Experimental: as §3
(3) Preparation of the MG infected fowls was performed in the same manner as in (1) above. Infection of H.pp (otherwise called Actinobacillus pleuropneumoniae) to cause pleuropneumonia in pig was performed by inoculating 5 ml of a fresh cultured strain (i.e. M-1) of H.pp to each nasopharyngeal of some 45 days pigs, each weighing 4 to 9 kg (4 to 5 pigs/group), followed by injection of the test compounds to each thigh muscle at a designated volume one time. Pigs were dissected 6 days after the inoculation. The evaluation of the antimicrobial activity was made by observation of the pneumonia symptomes in air sacs, number of dead body and degree of nodosity in air sacks on dissection.

[17] = tested on: Salmonella typhimurium (S.typhi) 13311; assay: In vitro sensitivity test (agar dilution method); format: cell-based; details: 37°C, 20 to 24 hours
[18] = tested on: Pasteurella piscicida (P.pis) No. 2; assay: In vitro sensitivity test; format: cell-based; details: 25°C, 40 to 48 hours
Outline: as §1

Acute toxicity (LD50) = details: in vivo, read-out: LD₅₀
Description: The compounds (I) according to the invention show a higher antimicrobial activity than the control or commercially available antimicrobial agents with a smaller dosage. […]

## CCN1CCN(c2cc3c(cc2F)c(=O)c(C(=O)O)cn3C2CC2)CC1 [ERFX, Enrofuroxasin®, reference compound]
[1]
  In vitro Sensitivity Test MG S6: 0.1 µg/mL
[2]
  In vitro Sensitivity Test MG T-7-T: 0.1 µg/mL
[3]
  In vitro Sensitivity Test Mh ST-11: 0.05 µg/mL
[4]
  In vitro Sensitivity Test MS 1853: 0.1 µg/mL
[5]
  In vitro Sensitivity Test MS F10-2as: 3.13 µg/ml
[6]
  In vitro Sensitivity Test B.br ABU-1: 0.1 µg/mL
[7]
  In vitro Sensitivity Test E.coli E-17: 0.1 µg/ml
[8]
  In vitro Sensitivity Test E.coli JC-2: 0.1 µg/mL
[9]
  In vitro Sensitivity Test H.pg 221: 0.1 µg/mL
[10]
  In vitro Sensitivity Test H.pg S-1: 0.2 µg/mL
[11]
  In vitro Sensitivity Test H.pp M-1: 0.2 µg/mL
[12]
  In vitro Sensitivity Test S.au 209P: 0.1 µg/mL
[13]; oral 1.56 mg/kg, 9-days chicken
  Number of infected fowl/Number of fowl tested: 2/5
[13]; oral 3.13 mg/kg, 9-days chicken, 2.2 x 10³ CFU/fowl
  Number of fowl having air sack lesions: 2
[13]; oral 3.13 mg/kg, 9-days chicken
  Number of infected fowl/Number of fowl tested: 0/5
[13]; oral 6.25 mg/kg, 9-days chicken, 1.7 x 10³ CFU/fowl
  Number of fowl having air sack lesions: 1
[13]; oral 6.25 mg/kg, 9-days chicken, 2.2 x 10³ CFU/fowl
  Number of fowl having air sack lesions: 0
[13]; oral 6.25 mg/kg, 9-days chicken
  Number of infected fowl/Number of fowl tested: 0/5
[13]; oral 6.25 mg/kg, 10-days chicken, 1.2 x 10³ CFU/fowl
  Number of fowl having air sack lesions: 2
[13]; oral 6.25 mg/kg, 10-days chicken, 3.0 x 10³ CFU/fowl
  Number of fowl having air sack lesions: 2
[13]; oral 12.5 mg/kg, 9-days chicken, 1.7 x 10³ CFU/fowl
  Number of fowl having air sack lesions: 0
[13]; oral 12.5 mg/kg, 9-days chicken, 2.2 x 10³ CFU/fowl
  Number of fowl having air sack lesions: 0
[13]; oral 12.5 mg/kg, 10-days chicken, 1.2 x 10³ CFU/fowl
  Number of fowl having air sack lesions: 0
[13]; oral 12.5 mg/kg, 10-days chicken, 3.0 x 10³ CFU/fowl
  Number of fowl having air sack lesions: 0
[13]; oral 25.0 mg/kg, 9-days chicken, 1.7 x 10³ CFU/fowl
  Number of fowl having air sack lesions: 0
[13]; oral 25.0 mg/kg, 10-days chicken, 1.2 x 10³ CFU/fowl
  Number of fowl having air sack lesions: 0
[13]; oral 25.0 mg/kg, 10-days chicken, 3.0 x 10³ CFU/fowl
  Number of fowl having air sack lesions: 0
[13]; oral administration, MG-infected chicken
  complete inihibition of the lesions in air sac at a concentration of: 12.5 mg/kg
TS-resistant MG [14]; bait 15.6 ppm/Day
  Number of fowl having air sack lesions: 1
TS-resistant MG [14]; bait 31.3 ppm/Day
  Number of fowl having air sack lesions: 0
  Number of infected fowl/Number of fowl tested: 1/7
TS-resistant MG [14]; bait 62.5 ppm/Day
  Number of fowl having air sack lesions: 0
  Number of infected fowl/Number of fowl tested: 0/7
TS-resistant MG [14]; bait 125 ppm/Day
  Number of infected fowl/Number of fowl tested: 0/7
H.pg strain (i.e. 221)
  Effective concentration to prevent pituita: 7.8 ppm/day
TS-resistant MG [15]; Dose 1.56 mg/kg
  Number of fowl having air sack lesions: 3
TS-resistant MG [15]; Dose 3.13 mg/kg
  Number of fowl having air sack lesions: 2
[16]; Dose 5 mg/kg
  Number of pig died or developed dyspnea/Number of pig tested: 0/4
  Number of pig having nodi/Number of pig tested: 0/4
[16]; Dose 10 mg/kg
  Number of pig died or developed dyspnea/Number of pig tested: 0/4
  Number of pig having nodi/Number of pig tested: 0/4

## CNCC12CCCC1CN(c1c(F)cc3c(=O)c(C(=O)O)cn(C4CC4)c3c1F)C2.Cl (stereo not shown) [I-5]
[5]
  In vitro Sensitivity Test MS F10-2as: 0.2 µg/ml
[17]
  In vitro Sensitivity Test S.typhi 13311: 0.2 µg/mL
[18]
  In vitro Sensitivity Test P.pis No. 2: 1.56 µg/mL
[13]; in vivo, po
  antimicrobial activity compared with ERFX: two times more effective than ERFX
  complete inihibition of the lesions in air sac at a concentration of: about 3.13 mg/kg
[13]; in vivo, po, 1.56 mg/kg
  Infectious index Left air sack +: 0
  Infectious index Left air sack ++: 0
  Infectious index Left air sack +++: 0
  Infectious index Left air sack -: 4
  Infectious index Right air sack +: 0
  Infectious index Right air sack ++: 1
  Infectious index Right air sack +++: 1
  Infectious index Right air sack -: 2
  Number of fowl having air sack lesions: 2
[13]; in vivo, po, 3.13 mg/kg
  Infectious index Left air sack +: 0
  Infectious index Left air sack ++: 0
  Infectious index Left air sack +++: 0
  Infectious index Left air sack -: 5
  Infectious index Right air sack +: 0
  Infectious index Right air sack ++: 0
  Infectious index Right air sack +++: 0
  Infectious index Right air sack -: 5
  Number of fowl having air sack lesions: 0
[13]; in vivo, po, 6.25 mg/kg
  Infectious index Left air sack +: 0
  Infectious index Left air sack ++: 0
  Infectious index Left air sack +++: 0
  Infectious index Left air sack -: 5
  Infectious index Right air sack +: 0
  Infectious index Right air sack ++: 0
  Infectious index Right air sack +++: 0
  Infectious index Right air sack -: 5
  Number of fowl having air sack lesions: 0
[13]; in vivo, po, 25 mg/kg
  Infectious index Left air sack +: 0
  Infectious index Left air sack ++: 0
  Infectious index Left air sack +++: 0
  Infectious index Left air sack -: 5
  Infectious index Right air sack +: 0
  Infectious index Right air sack ++: 0
  Infectious index Right air sack +++: 0
  Infectious index Right air sack -: 5
  Number of fowl having air sack lesions: 0
H.pg strain (i.e. 221)
  Effective concentration to prevent pituita: 1.56 ppm/day
[16]; Dose 10 mg/kg
  Number of pig died or developed dyspnea/Number of pig tested: 0/4
  Number of pig having nodi/Number of pig tested: 0/4
Acute toxicity (LD50); ip, Mouse (B6C3F₁, male), i.p.
  LD50: 200 mg/kg
Acute toxicity (LD50); po, Chicken ( -days), p.o.
  LD50: 500 mg/kg
Acute toxicity (LD50); po, Mouse (B6C3F₁, male), p.o.
  LD50: 2000 mg/kg
